Blank lines part the entries; values can stand above or below the molecule they belong to. Where a SMILES comes first, the peptide text is derived from it.
Tests used:
[1] = biological target: T1, trypsin from porcine pancreas (Sus scrofa, UniProt P00761); assay: Proteolytic stability against trypsin; assay type: in vitro ADME; settings: pig, isolated enzyme trypsin; 55.5 μM peptide, 0.55 μg/ml trypsin from porcine pancreas, ammonium bicarbonate buffer pH 7.5, 37 °C, 15–480 min, intact peptide by RP-HPLC (Fmoc-Gly internal standard), n = 3, nonlinear regression fit; read-out: Half-life (min), trypsin
T1 construct: purchased Sigma; host or cells: porcine pancreas
Method: (§1) Figure 4. Biophysical analysis of stapled peptides. A, amino acid sequence alignment of the targeted TM regions and disrupting peptides. Cys residues are in the reduced state. Blue bridges indicate the stapled amino acid residues. […] Yields, purity, and MALDI-TOF data are shown for the stapled peptides and negative control. B, CD analysis of 30–50 μM peptides at 20 °C. For proteolytic stability studies, the peptide solution (55.5 μM for trypsin and chymotrypsin and 11.1 μM for serum) was incubated in the presence of 0.55 μg/ml trypsin from porcine pancreas (E), α-chymotrypsin (F), or mouse serum (G) at 37 °C for the indicated times (indicated on the x axis). Data are mean ± S.E. (error bars) (n = 3) percentage of intact peptide normalized to t = 0. Proteolytic half-lives and putative cleavage sites (predicted using the Expasy bioinformatics server's model with a 50% probability of cleavage) are indicated at the bottom of each panel. Positive correlation between helicity and half-life in trypsin/chymotrypsin (C) or serum (D) was determined by two-tailed Pearson's correlation test. TEXT PRINTED IN THE PICTURE: (B) TM7-TAT: Ellipticity (%): 3.4 | (B) TM6-TAT: Ellipticity (%): 18.3 | (B) TM5-TAT: Ellipticity (%): 20.9 | (B) 8: Ellipticity (%): 58.3 | (B) 9: Ellipticity (%): 46.4 | (B) 10: Ellipticity (%): 36.8 | (B) 11: Ellipticity (%): 46 | (E) TM7-TAT: Half-life (min): 21; #Cleavage sites: 8 | (E) TM6-TAT: Half-life (min): 40; #Cleavage sites: 7 | (E) TM5-TAT: Half-life (min): 33; #Cleavage sites: 8 | (E) 8: Half-life (min): 307; #Cleavage sites: 0 | (E) 9: Half-life (min): 178; #Cleavage sites: 0 | (E) 10: Half-life (min): 75; #Cleavage sites: 6 | (E) 11: Half-life (min): 84; #Cleavage sites: 0 | (F) TM7-TAT: Half-life (min): 22; #Cleavage sites: 6 | (F) TM6-TAT: Half-life (min): 32; #Cleavage sites: 7 | (F) TM5-TAT: Half-life (min): 28; #Cleavage sites: 7 | (F) 8: Half-life (min): 425; #Cleavage sites: 4 | (F) 9: Half-life (min): 198; #Cleavage sites: 3 | (F) 10: Half-life (min): 63; #Cleavage sites: 2 | (F) 11: Half-life (min): 79; #Cleavage sites: 4 | (G) TM7-TAT: Half-life (hours): 0.46 | (G) TM6-TAT: Half-life (hours): 0.55 | (G) TM5-TAT: Half-life (hours): 0.81 | (G) 8: Half-life (hours): ≥18 | (G) 9: Half-life (hours): 14.7 | (G) 10: Half-life (hours): 11.7 | (G) 11: Half-life (hours): 5.3 DOUBTS OF THE COPYIST ABOUT THIS PICTURE: Panel A table (Yield, Rt, Purity, [M+H+] calc., [M+H+] Peak Found for 7-11) left out as synthesis and mass-spectrum characterisation data; uncertain whether [M+H+] calc. should count as a molecular weight
(§2) Dose–response curves were fitted using a four-parameter logistic nonlinear regression mode. Peptide stability data were fitted using a nonlinear regression mode for dissociation kinetics. All statistical tests, curve fitting, and graphing were performed using GraphPad Prism 8 (GraphPad Software, La Jolla, CA).
To 100 μl of peptide solution (100 μM, dissolved in ammonium bicarbonate buffer, pH 7.5), 60 μl of ammonium bicarbonate buffer (pH 7.5) was added, together with 20 μl of temperature-equilibrated (37 ± 1 °C) trypsin (5 μg/ml) from porcine pancreas (Sigma, 13,000–20,000 BAEE units/mg of protein). Peptides were incubated for 15, 30, 60, 120, 240, and 480 min, and then MeOH (HPLC Grade) + 0.05% TFA was added. The samples were then centrifuged (15,000 rpm), and the supernatant was analyzed, using Fmoc-Gly (10 μl, 0.2 mM) as an internal standard. The digestion at each time point was repeated three times to give the average values along with S.D. The amount of intact peptide that remained in the mixture was quantified by RP-HPLC. The experiment was repeated twice on different days.

[2] = biological target: T2, α-chymotrypsin from bovine pancreas (Bos taurus, UniProt P00766, DEL14-15/DEL147-148); assay: Proteolytic stability against chymotrypsin; assay type: in vitro ADME; settings: cattle, isolated enzyme chymotrypsin; 55.5 μM peptide, 0.55 μg/ml α-chymotrypsin from bovine pancreas, ammonium bicarbonate buffer pH 7.5, 37 °C, 15–480 min, intact peptide by RP-HPLC, n = 3, nonlinear regression fit; read-out: Half-life (min), α-chymotrypsin
T2 construct: purchased Sigma Type II; host or cells: bovine pancreas
Method: as §1, §2
To 100 μl of peptide solution (100 μM, dissolved in ammonium bicarbonate buffer, pH 7.5), 60 μl of ammonium bicarbonate buffer (pH 7.5) was added, together with 20 μl of temperature-equilibrated (37 ± 1 °C) α-chymotrypsin (5 μg/ml) from bovine pancreas (Sigma, Type II, activity > 40 units/mg protein). Peptides were incubated for 15, 30, 60, 120, 240, and 480 min, and then MeOH (HPLC grade) + 0.05% TFA was added. The samples were then centrifuged (15,000 rpm), and supernatant was analyzed in a similar manner as described above. The experiment was repeated twice on different days.

5-HT2AR–CB1R heteromers = tested on: 5-HT2AR–CB1R heteromers; design: method as in 2 sources, ref 16 = [16]; PMID 26158621; doi:10.1371/journal.pbio.1002194; 16. Viñals X. , Moreno E. , Lanfumey L. , Cordomí A. , Pastor A. , de La Torre R. , Gasperini P. , Navarro G. , Howell L. A. , Pardo L. , Lluís C. , Canela E. I. , McCormick P. J. , Maldonado R. , and ||| ref 4, unpublished observations; settings: synthetic TM-mimicking peptides fused to HIV-TAT; cited from earlier work
Stability in mouse serum = assay type: in vitro ADME; settings: 11.1 μM peptide, fresh nonsterile mouse serum (200 μl serum + 25 μl peptide solution, pH 7.5 buffer with 10% DMSO), 37 °C, quench 15% TCA in acetonitrile, HPLC, n = 3; read-out: Half-life (hours), mouse serum (converted)
Method: as §1, §2
To 200 μl of fresh nonsterile mouse serum was added 25 μl of peptide solution (100 μM, dissolved in ammonium bicarbonate buffer, pH 7.5, containing 10% DMSO), and the mixture was incubated at 37 °C. At the specified time, an aliquot of incubation mixture was withdrawn and quenched by the addition of an equal volume of 15% TCA in acetonitrile to precipitate out serum proteins over ice for 30 min. The mixture was then centrifuged at 13,500 rpm for 10 min, and the supernatant was collected and analyzed by HPLC in a similar manner as described previously. The experiment was repeated twice on different days.

[3] = biological target: T3, 5-HT2AR N-terminally tagged with LgBiT or SmBiT, CMV promoter (human, UniProt P28223 1-471); assay: split reporter (BiFC, NanoBiT); NanoBiT orientation screens: LgBiT and SmBiT receptor fusions (C- or N-terminal, CMV promoter) transiently co-transfected in HEK293 cells at 50 or 100 ng of receptor/well, compared with each construct alone; live cells, 24 h post-transfection, furimazine substrate; settings: partners not purified
T3 construct: 5-hydroxytryptamine 2A receptor (5-HT2AR), human, cloned from the cDNA Resource Center plasmid; also called SmBiT–5-HT2AR; SmBiT 5-HT2AR; source: HEK293, transiently transfected (CMV promoter), live cells; not shown: LgBiT or SmBiT (one of the two on each copy; SmBiT in the peptide screen), N-terminal, kept
T3 sequence (P28223 whole entry, the tested form may be a part): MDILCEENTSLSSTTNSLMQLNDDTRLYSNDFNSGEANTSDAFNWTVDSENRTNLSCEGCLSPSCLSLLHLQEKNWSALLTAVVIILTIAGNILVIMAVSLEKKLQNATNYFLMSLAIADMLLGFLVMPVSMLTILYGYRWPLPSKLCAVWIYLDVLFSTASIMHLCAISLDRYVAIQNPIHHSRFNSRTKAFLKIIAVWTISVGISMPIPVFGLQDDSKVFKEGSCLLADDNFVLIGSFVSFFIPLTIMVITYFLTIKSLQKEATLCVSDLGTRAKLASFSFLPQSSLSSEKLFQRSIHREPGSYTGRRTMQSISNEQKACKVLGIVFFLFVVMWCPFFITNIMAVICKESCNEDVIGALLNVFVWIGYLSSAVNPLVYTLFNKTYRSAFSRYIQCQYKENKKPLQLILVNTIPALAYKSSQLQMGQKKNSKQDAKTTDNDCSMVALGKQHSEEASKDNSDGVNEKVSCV

T1 sequence (P00761 9-231): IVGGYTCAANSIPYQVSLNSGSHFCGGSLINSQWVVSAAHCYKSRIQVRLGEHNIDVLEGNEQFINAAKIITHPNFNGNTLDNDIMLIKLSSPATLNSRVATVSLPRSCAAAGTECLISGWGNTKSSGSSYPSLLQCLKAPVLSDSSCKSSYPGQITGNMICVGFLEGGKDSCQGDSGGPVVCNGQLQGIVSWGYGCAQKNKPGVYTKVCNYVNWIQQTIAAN

Molecule: CC[C@H](C)[C@H](NC(=O)[C@@H](NC(=O)[C@@H]1CCCN1C(=O)[C@H](CC(N)=O)NC(=O)[C@@H](NC(=O)[C@@H](NC(=O)[C@H](CO)NC(=O)[C@H](CC(N)=O)NC(=O)[C@H](CC(C)C)NC(=O)[C@H](CC(C)C)NC(=O)[C@H](CS)NC(=O)[C@H](CC(C)C)NC(=O)[C@H](CCSC)NC(=O)[C@H](CO)NC(=O)[C@H](CS)NC(=O)[C@H](Cc1ccccc1)NC(=O)[C@H](C)NC(=O)[C@H](Cc1ccccc1)NC(=O)[C@@H](NC(=O)[C@@H](NC(=O)[C@H](CCCCN)NC(=O)[C@@H](NC(=O)[C@@H](N)CC(C)C)[C@@H](C)CC)[C@@H](C)O)C(C)C)[C@@H](C)O)C(C)C)[C@@H](C)CC)C(=O)N[C@@H](Cc1ccc(O)cc1)C(=O)N[C@@H](C)C(=O)N[C@@H](CC(C)C)C(=O)N[C@@H](CCCNC(=N)N)C(=O)NCC(=O)N[C@@H](CCCNC(=N)N)C(=O)N[C@@H](CCCCN)C(=O)N[C@@H](CCCCN)C(=O)N[C@@H](CCCNC(=N)N)C(=O)N[C@@H](CCCNC(=N)N)C(=O)N[C@@H](CCC(N)=O)C(=O)N[C@@H](CCCNC(=N)N)C(=O)N[C@@H](CCCNC(=N)N)C(=O)N[C@@H](CCCNC(=N)N)C(=O)O [TM7-TAT, reference compound] (H-LIKTVFAFCSMLCLLNSTVNPIIYALRGRKKRRQRRR-OH)
half-life at 55.5 μM [1]: 21 min | half-life at 55.5 μM [2]: 22 min | disruption of 5-HT2AR–CB1R heteromers (previous studies) (5-HT2AR–CB1R heteromers): did not disrupt the heteromer | half-life at 11.1 μM (Stability in mouse serum): 0.46 h

fold change of luminescence over the individual receptor construct [3]: ~200 fold
B1: CB1R N-terminally tagged with LgBiT or SmBiT, CMV promoter (receptor, human, UniProt P21554 1-472, looked up)
chain: MKSILDGLADTTFRTITTDLLYVGSNDIQYEDIKGDMASKLGYFPQKFPLTSFRGSPFQEKMTAGDNPQLVPADQVNITEFYNKSLSSFKENEENIQCGENFMDIECFMVLNPSQQLAIAVLSLTLGTFTVLENLLVLCVILHSRSLRCRPSYHFIGSLAVADLLGSVIFVYSFIDFHVFHRKDSRNVFLFKLGGVTASFTASVGSLFLTAIDRYISIHRPLAYKRIVTRPKAVVAFCLMWTIAIVIAVLPLLGWNCEKLQSVCSDIFPHIDETYLMFWIGVTSVLLLFIVYAYMYILWKAHSHAVRMIQRGTQKSIIIHTSEDGKVQVTRPDQARMDIRLAKTLVLILVVLIICWGPLLAIMVYDVFGKMNKLIKTVFAFCSMLCLLNSTVNPIIYALRSKDLRHAFRSMFPSCEGTAQPLDNSMGDSDCLHKHANNAASVHRAAESCIKSTVKIAKVTMSVSTDTSAEAL
notes: cannabinoid receptor type 1 (CB1R), human, cloned from the cDNA Resource Center plasmid; also called LgBiT–CB1R; LgBT–CB1R; source: HEK293, transiently transfected (CMV promoter), live cells; not shown: LgBiT or SmBiT (one of the two on each copy; LgBiT in the peptide screen), N-terminal, kept
